The results in this text go back to patent US12492182B2, “Hydroxytriazine compounds and pharmaceutical use thereof” (Japan Tobacco Inc., priority 2015, dated 2025).

Each structure is given as a SMILES string. Read-outs that look alike come from different tables or passages of the source.

Assay [1] addresses T1, human mPGES-1 (Homo sapiens, UniProt O14684).
T1 construct: made in house; host or cells: Chinese hamster ovary-derived cells (FreeStyle CHO-S), transient transfection of pcDNA3.1(+)/human mPGES-1; microsome fraction
T1 sequence (O14684 1-152): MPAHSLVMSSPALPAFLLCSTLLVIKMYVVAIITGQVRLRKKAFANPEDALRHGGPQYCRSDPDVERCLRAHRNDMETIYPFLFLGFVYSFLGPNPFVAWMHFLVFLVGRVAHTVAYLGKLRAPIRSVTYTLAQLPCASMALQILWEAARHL
Briefly: Evaluation of human mPGES-1 enzyme inhibitory activity (HTRF measurement of PGE2). The assay is classed as biochemical. As to conditions: IC50 value; microsome fraction of CHO-S cells expressing human mPGES-1, PGH2 substrate, PGE2 by HTRF; read-out: humans mPGES-1 enzyme inhibitory activity. As to the method:
Experimental Example 1: Evaluation of Human mPGES-1 Enzyme Inhibitory Activity
The human mPGES-1 enzyme inhibitory activity of a test article was evaluated according to the report of Xu et al. (XU, D et al. MF63 [2-(6-chloro-1H-phenanthro[9,10-d]imidazol-2-yl)-isophthalonitrile], a selective microsomal prostaglandin E synthase-1 inhibitor relieves pyresis and pain in preclinical models of inflammation. J Pharmacol Exp Ther. September 2008, Vol. 326, No. 3, pages 754-763). The amount of PGE2 produced by human mPGES-1 in the presence of a test article was measured by the HTRF (homogeneous time resolved fluorescence) method, and the human mPGES-1 enzyme inhibitory activity of the test article was determined.
1) Preparation of Human mPGES-1 Expressing Cell Microsome Fraction
A DNA fragment containing human mPGES-1, which is added with a BamHI recognition cleavage sequence just before the translation initiation codon and an EcoRI recognition cleavage sequence just after the translation termination codon, was amplified by the PCR (Polymerase Chain Reaction) method using a human mPGES-1 expression plasmid DNA (pME-18S/iPGES-1) prepared in-house as a template. The purified DNA fragment was digested with BamHI and EcoRI, and ligated to pcDNA3.1(+) (Invitrogen, model number V790-20), similarly_digested with BamHI and EcoRI, by using a DNA Ligation kit ver. 2.1 (Takara Bio, model number 6022). The human mPGES-1 expression plasmid DNA was isolated from Escherichia coli DH5a (TOYOBO, model number DNA-903) transformed with the obtained ligation product. The base sequence of human mPGES-1 cloned to a vector was determined by the Dye Terminator method using BigDye Terminator v3.1 Cycle Sequencing Kit (Applied Biosystems, #4337455). The determined sequence was identical with the sequence of the protein translational region of human mPGES-1 (Accession number NM 004878) registered in the NCBI Reference Database.
Human mPGES-1 expression plasmid DNA was transfected into Chinese hamster ovary-derived cells (FreeStyle CHO-S Cell, Invitrogen, #R^800-07) by using a transgene reagent (FreeStyle MAX Reagent (Invitrogen, #16447-100)), and cultured with shaking (8% CO2, 37° C.) in a medium containing 8 mmol/L L-glutamine (GIBCO FreeStyle CHO Expression Medium, Invitrogen, #12651-022) for 48 hr.
The CHO-S cells were suspended in Homogenate Buffer (100 mmol/L potassium phosphate (pH 7.4), 250 mmol/L Sucrose, 100 mmol/L EDTA, complete EDTA free (Roche, #1873580)). Using an ultrasonic disruptor UD-201 (Tomy Seiko), the suspended cells were disrupted at output:3, duty cycle:50 for 30 seconds. The precipitate was removed by centrifugation (1,000×g, 5 min, 4° C.), and the supernatant was centrifuged (5,000×g, 10 min, 4° C.). The supernatant was further centrifuged (105,000×g, 60 min, 4° C.). The obtained precipitate was suspended in Resuspension Buffer (100 mmol/L potassium phosphate (pH 7.4), 250 mmol/L sucrose, 100 mmol/L EDTA, 10% glycerol) to give a microsome fraction.
The protein concentration of the microsome fraction was measured by the Bradford method (Protein Assay Kit, Bio-Rad). The microsome fraction was rapidly frozen in liquid nitrogen and preserved at −80° C. Human mPGES-1 in the microsome fraction was detected by Western Blot using rabbit anti-mPGES-1 polyclonal antibody (ThermoFisher Scientific, #PA1-10264).
2) Evaluation of Human mPGES-1 Enzyme Inhibitory Activity
A test article solution diluted with 0.1 mol/L potassium phosphate, pH 7.4 (hereinafter to be referred to as KPB) or DMSO (Nacalai Tesque, #13407-45) was added at 5 μL/well to 96 well V-bottom plate (Corning, #3363). The final DMSO concentration during the reaction was set to 2%(v/v). Furthermore, a microsome fraction of CHO-S cells expressing human mPGES-1, which was diluted with reduced GSH (12.5 mmol/L KPB solution, SIGMA, #G6529-25G) such that the protein concentration was 5 μg/mL, was added at 20 μL/well. […]
(In TR-FRET formats the signal depends on donor and acceptor labels being close together.)

Assay [2] concerns A549 cell. Briefly: Evaluation of PGE2 production inhibitory action using A549 cell (IL-1β stimulated). The assay is classed as cell-based, human. As to the method:
Experimental Example 2: Evaluation of PGE2 Production Inhibitory Action Using A549 Cell
A549 cell (Japan Health Sciences Foundation Research Resources Bank), which is cell line derived from humans lung cancer, was suspended in assay medium (Ham's F-12K (Wako, #080-08565) containing 2% FBS (Hyclone Laboratories, #SH30910.03), 100 units/mL penicillin and 100 μg/mL streptomycin (Invitrogen, #15140-122)), the suspension was added at 2.5×10^4 cells/100 μL/well to 96 well flat-bottom plate (Corning, #353072), and the plate was left standing for 20 hr in a CO2 incubator set at 37° C. The test article was serially diluted with DMSO (Nacalai Tesque, #13407-45), and then 20-fold diluted with the assay medium to prepare a test article solution having a ten-fold concentration of the final concentration. The final DMSO concentration during the reaction was set to 0.5% (v/v). The medium was removed from the plate in which the cell was added, new assay medium was added at 160 μL/well to the plate, and the plate was left standing for 10 min in a CO2 incubator. Then, the test article solution was added at 20 μL/well to the plate, and the plate was left standing for 30 min in a CO2 incubator. Next, recombinant humans IL-1β (R&D Systems, #201-LB) as a stimulant to enhance PGE2 production due to increase of mPGES-1 mRNA expression was added at 20 μL/well (the final concentration was 1 ng/mL) to the plate, and the plate was left standing for 18 hr in a CO2 incubator. The supernatant was collected at 180 μL/well, and the PGE2 concentration was measured using Prostaglandin E2 assay (CISbio Bioassays, #62P2APEC) according to the manual. As the reference standard for analytical curve, PGE2 (Cayman Chemical, #14010) was used. Using EnVision 2104 (Perkin Elmer), the time-resolved fluorescence at 620 nm and 665 nm relative to the excitation light at 337 nm was measured. PGE2 concentration was extrapolated from the PGE2 analytical curve. Average of the PGE2 concentrations of the respectively-treated wells was used as the data.
The PGE2 production inhibitory activity (%) of the test article was calculated according to the following Formula 3. PGE2 production inhibitory activity(%)=(PGE2A−PGE2X)/(PGE2A−PGE2B)×100 [Formula 3] • PGE2A: PGE2 concentration of vehicle-treated well • PGE2B: PGE2 concentration of blank well (no addition of recombinant humans IL-1B) • PGE2X: PGE2 concentration of test article-treated well

Where [3] appears, read: A549 cell, recombinant human IL-1β stimulation, read-out: cell PGE2 production inhibitory activity (IC50 value).
The mark [4] stands for this setting: Homo sapiens, A549, A549 cell, recombinant human IL-1β stimulation, read-out: cell PGE2 production inhibitory activity (IC50 value).
Where [5] appears, read: Homo sapiens, A549, 18 h, IC50 value, A549 cell, recombinant IL-1β 1 ng/mL, 18 hr, PGE2 in supernatant, read-out: cell PGE2 production inhibitory activity.

Turning to `CCC(OC)(C(=O)NCc1ccc(Cl)c(-c2nc(O)nc(-c3cccc(C(C)C)c3)n2)c1)C(F)(F)F` (single isomer, unassigned) [Example 132], the IC50 in assay [1] worked out at 0.8 nM; in assay [2] (setting [3]) it was 4.8 nM.
As for `CCC(OC)(C(=O)NCc1ccc(Cl)c(-c2nc(O)nc(-c3cccc(C(C)C)c3)n2)c1)C(F)(F)F` (single isomer, unassigned) [Example 134], the IC50 was found to be 1.7 nM in assay [1] and 19 nM in assay [2] (setting [3]).
For the molecule `CCC[C@@H](C)Oc1ccc(-c2nc(O)nc(-c3cc(CNC(=O)C(CC)(OC)C(F)(F)F)ccc3Cl)n2)cn1` (single isomer, unassigned) [Example 142], the IC50 in assay [1] stood at 7.7 nM; in assay [2] (setting [4]), 2.1 nM.
Take `CCC[C@@H](C)Oc1ccc(-c2nc(O)nc(-c3cc(CNC(=O)C(CC)(OC)C(F)(F)F)ccc3Cl)n2)cn1` (single isomer, unassigned) [Example 143]: the figures for the IC50 in assay [1] and in assay [2] (setting [3]) were 3.9 nM and 1.6 nM, respectively.
Take `CCC[C@H](C)Oc1ccc(-c2nc(O)nc(-c3cc(CNC(=O)C(CC)(OC)C(F)(F)F)ccc3Cl)n2)cn1` (single isomer, unassigned) [Example 144]: the IC50 in assay [1] was 3.9 nM; in assay [2] (setting [4]) it was 1.6 nM.
For the molecule `CCC[C@H](C)Oc1ccc(-c2nc(O)nc(-c3cc(CNC(=O)C(CC)(OC)C(F)(F)F)ccc3Cl)n2)cn1` (single isomer, unassigned) [Example 145], the IC50 in assay [1] turned out to be 4.5 nM; in assay [2] (setting [3]), 1.7 nM.
Regarding `CCCOc1cccc(-c2nc(O)nc(-c3cc(CNC(=O)C(C)(C)C(F)(F)F)ccc3Cl)n2)c1` [Example 1], the IC50 stood at 0.9 nM in assay [1] and 27 nM in assay [2] (setting [5]).
Turning to `CCCOc1ccc(-c2nc(O)nc(-c3cc(CNC(=O)C(C)(C)C(F)(F)F)ccc3Cl)n2)cn1` [Example 2], the IC50 was determined as 1.1 nM in assay [1] and 8.6 nM in assay [2] (setting [5]).
With `CCCCOc1cccc(-c2nc(O)nc(-c3cc(CNC(=O)C(C)(C)C(F)(F)F)ccc3Cl)n2)c1` [Example 3], the IC50 came to 2.1 nM in assay [1] and 27 nM in assay [2] (setting [5]).
For the molecule `CCCOc1ccc(-c2nc(O)nc(-c3cc(CNC(=O)C(C)(C)C(F)(F)F)ccc3Cl)n2)cc1C(C)C` [Example 4], the figures for the IC50 in assay [1] and in assay [2] (setting [5]) were 12 nM and 2.9 nM, respectively.
As for `CCCCc1cccc(-c2nc(O)nc(-c3cc(CNC(=O)C(C)(C)C(F)(F)F)ccc3Cl)n2)c1` [Example 5], the IC50 in assay [1] was 1.1 nM; in assay [2] (setting [5]), 30 nM.
On to `CCC(C)(C)C(=O)NCc1ccc(Cl)c(-c2nc(O)nc(-c3cccc(C(C)C)c3)n2)c1` [Example 6], for which the IC50 came to 0.4 nM in assay [1] and 23 nM in assay [2] (setting [5]).
The corresponding values for `CCCC(C)(C)C(=O)NCc1ccc(Cl)c(-c2nc(O)nc(-c3cccc(C(C)C)c3)n2)c1` [Example 7] are 1 nM and 68 nM.
For the molecule `CCC1(C(=O)NCc2ccc(Cl)c(-c3nc(O)nc(-c4cccc(C(C)C)c4)n3)c2)CC1` [Example 8], the IC50 in assay [1] was determined as 0.7 nM; in assay [2] (setting [5]) it was 14 nM.
Regarding `CCOc1cccc(-c2nc(O)nc(-c3cc(CNC(=O)C(C)(C)C(F)(F)F)ccc3Cl)n2)c1` [Example 9], the IC50 in assay [1] came to 0.7 nM; in assay [2] (setting [5]), 37 nM.
For the molecule `CCCOc1cc(C)cc(-c2nc(O)nc(-c3cc(CNC(=O)C(C)(C)C(F)(F)F)ccc3Cl)n2)c1` [Example 10], the IC50 is 1.7 nM in assay [1] and 49 nM in assay [2] (setting [5]).
Consider `Cc1cc(-c2nc(O)nc(-c3cc(CNC(=O)C(C)(C)C(F)(F)F)ccc3Cl)n2)cc(C(C)(C)C)c1` [Example 11], for which the IC50 in assay [1] worked out at 0.2 nM; in assay [2] (setting [5]), 17 nM.
For `COCC(C)(C)C(=O)NCc1ccc(Cl)c(-c2nc(O)nc(-c3cccc(C(C)C)c3)n2)c1` [Example 12], in that order: 3.2 nM and 350 nM.
Turning to `COCC1(C(=O)NCc2ccc(Cl)c(-c3nc(O)nc(-c4cccc(C(C)C)c4)n3)c2)CC1` [Example 13], the IC50 in assay [1] is 21 nM; in assay [2] (setting [5]), 1000 nM.
